The record followed here is patent US7473688B2, “Indolobenzazepine HCV NS5B inhibitors” (Bristol-Myers Squibb Company, priority 2005, dated 2009).

For one experiment, the target named is T1, HCV NS5B (Hepatitis C virus genotype 1b, UniProt Q9WMX2).
T1 construct: The protein was expressed with an 18 amino acid C-terminal truncation to enhance the solubility; made in house; host or cells: E. coli BL21 (DE3), pET21a
In words: HCV NS5B RdRp enzyme assay (preincubation protocol). Format: biochemical. Particulars: Table 1, read-out: IC50*. Put shortly:
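C-terminally truncated (Δ18) genotype 1b NS5B from E. coli, 14 nM, added to compound, then polyA template (0.2 nM), 3H-UTP (0.29 μM) and oligo-dT12 primer precaptured on streptavidin SPA beads. 4 h at 30 °C, pH 7.5, 2% DMSO; SPA readout; IC50 from seven concentrations by logistic fit.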

In a further experiment the test system is HCV replicon. Kind of experiment: HCV replicon FRET assay. In kind it is cell-based. Particulars: Hepatitis C virus, Table 1; FRET assay; read-out: EC50*. Put shortly:
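HCV replicon cells, with or without Renilla luciferase reporter, incubated with titrated compounds at 37 °C; Alamar blue read for cytotoxicity. NS3 protease activity read from lysates with 20 μM EDANS/DABCYL FRET peptide (340/490 nm, kinetic), or by Dual-Glo luciferase. Background from highest protease-inhibitor wells; EC50 = 50% signal reduction.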
For orientation: In antiviral work, replicon cells carry a viral genome segment that copies itself.

pEC50, pIC50: −log10 of the molar value.

T1 sequence (Q9WMX2 2420-2992): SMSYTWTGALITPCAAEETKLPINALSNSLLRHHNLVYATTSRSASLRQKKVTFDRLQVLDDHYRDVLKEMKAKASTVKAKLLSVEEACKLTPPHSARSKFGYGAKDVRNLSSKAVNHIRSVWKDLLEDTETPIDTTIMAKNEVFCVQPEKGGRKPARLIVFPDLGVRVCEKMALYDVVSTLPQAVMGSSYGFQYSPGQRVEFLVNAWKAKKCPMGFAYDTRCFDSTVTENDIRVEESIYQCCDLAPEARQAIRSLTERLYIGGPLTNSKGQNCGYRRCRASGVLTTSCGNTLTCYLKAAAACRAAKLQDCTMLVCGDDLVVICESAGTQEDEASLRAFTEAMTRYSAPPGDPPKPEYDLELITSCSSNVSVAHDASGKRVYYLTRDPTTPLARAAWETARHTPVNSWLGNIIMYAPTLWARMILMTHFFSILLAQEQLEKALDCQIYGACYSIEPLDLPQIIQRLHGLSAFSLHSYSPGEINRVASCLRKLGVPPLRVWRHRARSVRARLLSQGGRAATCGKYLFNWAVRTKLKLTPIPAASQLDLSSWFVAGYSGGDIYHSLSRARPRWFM

In general, pIC50 refers to −log10 of the IC50, conventionally taken in molar units. Broadly, the pEC50 is −log10 of the EC50, conventionally taken in molar units. As for `CC(C)(C)OC(=O)N1CCN(C(=O)C2=Cc3ccccc3-c3c(C4CCCCC4)c4ccc(C(=O)O)cc4n3C2)CC1`, at HCV NS5B, the negative-log IC50 (pIC50) is 6.00 to 8.00. Further, the negative-log EC50 (pEC50) with HCV replicon was 6.00 to 7.15.
In the same order, the values of `C[C@@H]1CN(C(=O)c2ccccc2)CCN1C(=O)C1=Cc2ccccc2-c2c(C3CCCCC3)c3ccc(C(=O)O)cc3n2C1` are 6.00 to 8.00 and 6.00 to 7.15.
For `O=C(O)c1ccc2c(C3CCCCC3)c3n(c2c1)CC(C(=O)N1CCN(C(=O)N2CCOCC2)CC1)=Cc1ccccc1-3`, in that order: 6.00 to 8.00 and 6.00 to 7.15.
With `CN(C)S(=O)(=O)NC(=O)c1ccc2c(C3CCCCC3)c3n(c2c1)CC(C(=O)N1CCN(CC(=O)N2CCOCC2)CC1)=Cc1ccccc1-3`, the pIC50 at HCV NS5B was 6.00 to 8.00. Further, the pEC50 with HCV replicon is 6.00 to 7.15.
In the same order, the values of `CN(C)S(=O)(=O)NC(=O)c1ccc2c(C3CCCCC3)c3n(c2c1)CC(C(=O)N1CCN(C(=O)C2COc4ccccc4O2)CC1)=Cc1ccccc1-3` (stereo not shown) are 6.00 to 8.00 and 6.00 to 7.15.
For `COCCN1CCN(C(=O)C2=Cc3ccccc3-c3c(C4CCCCC4)c4ccc(C(=O)NS(=O)(=O)N(C)C)cc4n3C2)CC1`, in that order: 6.00 to 8.00 and 6.00 to 7.15.
Regarding `CCS(=O)(=O)N1CCN(C(=O)C2=Cc3ccccc3-c3c(C4CCCCC4)c4ccc(C(=O)NS(=O)(=O)N(C)C)cc4n3C2)CC1`, at HCV NS5B, the pIC50 was 6.00 to 8.00. In addition, in the experiment with HCV replicon, the negative-log EC50 (pEC50) was 6.00 to 7.15.
In the case of `CN(C)S(=O)(=O)NC(=O)c1ccc2c(C3CCCCC3)c3n(c2c1)CC(C(=O)N1CCN2C(=O)c4ccccc4CC2C1)=Cc1ccccc1-3` (stereo not shown), the negative-log IC50 (pIC50) at HCV NS5B was 6.00 to 8.00. Also, the pEC50 in the experiment with HCV replicon is 6.00 to 7.15.
With `CN(C)S(=O)(=O)NC(=O)c1ccc2c(C3CCCCC3)c3n(c2c1)CC(C(=O)N1CCN(S(=O)(=O)c2ccccc2)CC1)=Cc1ccccc1-3`, on HCV NS5B, the negative-log IC50 (pIC50) is 6.00 to 8.00. Moreover, the negative-log EC50 (pEC50) with HCV replicon is 6.00 to 7.15.
Take `CN(C)S(=O)(=O)NC(=O)c1ccc2c(C3CCCCC3)c3n(c2c1)CC(C(=O)N1CCN(C(=O)C2CC2)CC1)=Cc1ccccc1-3`: the pIC50 at HCV NS5B is 6.00 to 8.00. Further, in the experiment with HCV replicon, the pEC50 was 6.00 to 7.15.
In the same order, the values of `COc1ccc2c(c1)C=C(C(=O)N1CCN(S(C)(=O)=O)CC1)Cn1c-2c(C2CCCCC2)c2ccc(C(=O)NS(=O)(=O)N(C)C)cc21` are 6.00 to 8.00 and 6.00 to 7.15.
Regarding `COc1ccc2c(c1)C=C(C(=O)N1CCN(S(=O)(=O)N(C)C)CC1)Cn1c-2c(C2CCCCC2)c2ccc(C(=O)NS(=O)(=O)N(C)C)cc21`, on HCV NS5B, the negative-log IC50 (pIC50) was 6.00 to 8.00. In the experiment with HCV replicon, the pEC50 was 6.00 to 7.15.
For `CN(C)S(=O)(=O)NC(=O)c1ccc2c(C3CCCCC3)c3n(c2c1)CC(C(=O)N1CCN(S(C)(=O)=O)CC1)=Cc1cc(OCc2ccccc2)ccc1-3`, in that order: 6.00 to 8.00 and 6.00 to 7.15.
For `CC(=O)OCC(=O)N1CCN(C(=O)C2=Cc3ccccc3-c3c(C4CCCCC4)c4ccc(C(=O)NS(=O)(=O)N5CCOCC5)cc4n3C2)CC1`, in that order: 6.00 to 8.00 and 6.00 to 7.15.
In the same order, the values of `CN(C)S(=O)(=O)NC(=O)c1ccc2c(C3CCCCC3)c3n(c2c1)CC(C(=O)N1CCN(c2nccs2)CC1)=Cc1ccccc1-3` are 6.00 to 8.00 and 6.00 to 7.15.
Consider `CN(C)S(=O)(=O)NC(=O)c1ccc2c(C3CCCCC3)c3n(c2c1)CC(C(=O)N1CCn2cnnc2C1)=Cc1ccccc1-3`, for which the negative logarithm of the IC50 (pIC50) at HCV NS5B was 6.00 to 8.00. Further, the pEC50 in the experiment on HCV replicon is 5.00 to 6.00.
In the case of `CN(C)S(=O)(=O)NC(=O)c1ccc2c(C3CCCCC3)c3n(c2c1)CC(C(=O)N1CCN(c2ncncn2)CC1)=Cc1ccccc1-3`, the pIC50 on HCV NS5B was 6.00 to 8.00. The negative-log EC50 (pEC50) in the experiment on HCV replicon was 6.00 to 7.15.
For `CC(=O)N1CCN(C(=O)C2Cc3ccccc3-c3c(C4CCCCC4)c4ccc(C(=O)NS(=O)(=O)N(C)C)cc4n3C2)CC1` (stereo not shown), the negative logarithm of the IC50 (pIC50) on HCV NS5B is 6.00 to 8.00. The negative-log EC50 (pEC50) in the experiment with HCV replicon is 6.00 to 7.15.
For `CN(C)S(=O)(=O)NC(=O)c1ccc2c(C3CCCCC3)c3n(c2c1)CC(C(=O)N1CCN(S(C)(=O)=O)CC1)Cc1ccccc1-3` (stereo not shown), in that order: 6.00 to 8.00 and 6.00 to 7.15.
In the same order, the values of `O=C1Cn2c(c(C3CCCCC3)c3ccc(C(=O)NS(=O)(=O)N4CCOCC4)cc32)-c2ccccc2N1` are 6.00 to 8.00 and 6.00 to 7.15.
In the same order, the values of `O=C(NS(=O)(=O)C(F)(F)F)c1ccc2c(C3CCCCC3)c3n(c2c1)CC(C(=O)N1CCOCC1)=Cc1ccccc1-3` are 6.00 to 8.00 and 5.00 to 6.00.
With `O=C(NS(=O)(=O)C(F)(F)F)c1ccc2c(C3CCCCC3)c3n(c2c1)CC(C(=O)N1CCOCC1)Cc1ccccc1-3` (stereo not shown), the pIC50 on HCV NS5B is 6.00 to 8.00. The negative logarithm of the EC50 (pEC50) in the experiment with HCV replicon is 6.00 to 7.15.
Consider `O=C(NS(=O)(=O)N1CCOCC1)c1ccc2c(C3CCCCC3)c3n(c2c1)CC(C(=O)N1CCOCC1)=Cc1ccccc1-3`, for which the negative logarithm of the IC50 (pIC50) on HCV NS5B is 6.00 to 8.00. The pEC50 in the experiment with HCV replicon is 6.00 to 7.15.
